From patent publication US11274083B2, “Substituted thiophenyl uracils, salts thereof and the use thereof as herbicidal agents” (Syngenta Crop Protection AG, priority 2017, dated 2022)
“And” between values parts separate entries of the source, which are not always exact repeats. Equal entries are not always repeated.

What was measured:
Format in all cases: in vivo
Matricaria inodora [1] = experiment: Herbicidal action pre-emergence, greenhouse pot test
Digitaria sanguinalis [2] = experiment: as above; settings: application rate 80 g/ha
Description: Seeds of mono- and dicotyledonous weeds and crop plants were laid out in plastic or organic plant pots and covered with soil. The compounds of the invention formulated in the form of wettable powders (WP) or as emulsion concentrates (EC) were then applied to the surface of the covering soil as an aqueous suspension or emulsion with addition of 0.5% additive at a water application rate equivalent to 600 L/ha. After the treatment, the pots were placed in a greenhouse and kept under good growth conditions for the test plants. After about 3 weeks, the efficacy of the preparations was scored visually as a percentage by comparison with untreated controls. For example, 100% efficacy=plants have died. 0% efficacy=like control plants.

Setaria viridis [3] = experiment: Herbicidal action post-emergence, greenhouse pot test
Outline: (§1)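 Weeds in sandy loam pots sprayed at one-leaf stage (2–3 weeks after sowing) with WP or EC formulations in water plus 0.5% additive, 600 L/ha, at 80 g/ha or lower. After about 3 weeks in greenhouse, efficacy scored visually versus untreated controls (100% = dead, 0% = like control).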

Echinochloa crus-galli [4] = experiment: as above
Outline: as §1

Pharbitis purpurea [5] = experiment: as above
Outline: as §1

Alopecurus myosuroides [6] = experiment: as above; settings: application rate 20 g/ha, scored visually after about 3 weeks vs untreated controls
Outline: as §1

Veronica persica [7] = experiment: as above
Outline: as §1

Abutilon theophrasti [8] = experiment: as above
Outline: as §1

Matricaria inodora [9] = experiment: as above
Outline: as §1

Viola tricolor [10] = experiment: as above
Outline: as §1

Stellaria media [11] = experiment: as above
Outline: as §1

Amaranthus retroflexus [12] = experiment: as above
Outline: as §1

Polygonum convolvulus [13] = experiment: as above
Outline: as §1

Triticum aestivum = experiment: Crop compatibility post-emergence, greenhouse pot test; settings: application rate 20 g/ha
Outline: (§2)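 Crops grown in sandy loam in greenhouse pots; treated post-emergence at one-leaf stage, 2–3 weeks after sowing, spraying WP or EC formulations as aqueous suspension/emulsion with 0.5% additive at 600 L/ha. Damage scored visually after about 3 weeks against untreated controls (0% = like control, 100% = dead).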

Setaria viridis [14] = experiment: Herbicidal action pre-emergence, greenhouse pot test
Outline: (§3)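 Seeds sown in pots and covered with soil; WP or EC formulations sprayed onto the soil surface as aqueous suspension/emulsion with 0.5% additive at 600 L/ha water, at 320 g/ha or lower. Plants kept in greenhouse; efficacy scored visually after about 3 weeks as % versus untreated controls (100% = dead).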

Echinochloa crus-galli [15] = experiment: as above
Outline: as §3

Pharbitis purpurea [16] = experiment: as above
Outline: as §3

Veronica persica [17] = experiment: as above
Outline: as §3

Abutilon theophrasti [18] = experiment: as above
Outline: as §3

Viola tricolor [19] = experiment: as above
Outline: as §3

Stellaria media [20] = experiment: as above
Outline: as §3

Amaranthus retroflexus [21] = experiment: as above; settings: application rate 80 g/ha
Outline: as §3

Polygonum convolvulus [22] = experiment: as above
Outline: as §3

Digitaria sanguinalis [23] = experiment: Herbicidal action post-emergence, greenhouse pot test; settings: application rate 20 g/ha
Hordeum murinum [24] = experiment: as above; settings: application rate 80 g/ha
Outline: as §1

Avena fatua [25] = experiment: as above; settings: application rate 80 g/ha
Outline: as §1

Zea mays = experiment: Crop compatibility post-emergence, greenhouse pot test; settings: application rate 80 g/ha
Outline: as §2

Oryza sativa = experiment: as above; settings: application rate 80 g/ha
Outline: as §2

Glycine max = experiment: as above; settings: application rate 20 g/ha
Outline: as §2

Hordeum murinum [26] = experiment: Herbicidal action pre-emergence, greenhouse pot test; settings: application rate 320 g/ha
Outline: as §3

Alopecurus myosuroides [27] = experiment: as above; settings: application rate 320 g/ha
Outline: as §3

Cyperus esculentus = experiment: as above; settings: application rate 320 g/ha
Outline: as §3

Lolium rigidum = experiment: as above; settings: application rate 320 g/ha
Outline: as §3

Avena fatua [28] = experiment: as above; settings: application rate 320 g/ha
Outline: as §3

CC(Sc1cc(-n2c(=O)cc(C(F)(F)F)n(C)c2=O)c(F)cc1Cl)C(=O)OC1C(=O)OCC1(C)C (stereo not shown) [I.1-142]
Matricaria inodora (Efficacy in %) (Matricaria inodora [1]; application rate 80 g/ha): 100%
Digitaria sanguinalis (Efficacy in %) (Digitaria sanguinalis [2]): 100%
Setaria viridis (Efficacy in %) (Setaria viridis [3]; application rate 20 g/ha): 100%
Echinochloa crus-galli (Efficacy in %) (Echinochloa crus-galli [4]; application rate 20 g/ha): 100%
Pharbitis purpurea (Efficacy in %) (Pharbitis purpurea [5]; application rate 20 g/ha): 100%
Alopecurus myosuroides (Efficacy in %) (Alopecurus myosuroides [6]): 80%
Veronica persica (Efficacy in %) (Veronica persica [7]; application rate 20 g/ha): 100%
Abutilon theophrasti (Efficacy in %) (Abutilon theophrasti [8]; application rate 20 g/ha): 100%
Matricaria inodora (Efficacy in %) (Matricaria inodora [9]; application rate 20 g/ha): 100%
Viola tricolor (Efficacy in %) (Viola tricolor [10]; application rate 20 g/ha): 100%
Stellaria media (Efficacy in %) (Stellaria media [11]; application rate 20 g/ha): 100%
Amaranthus retroflexus (Efficacy in %) (Amaranthus retroflexus [12]; application rate 20 g/ha): 100%
Polygonum convolvulus (Efficacy in %) (Polygonum convolvulus [13]; application rate 20 g/ha): 100%
Triticum aestivum (Efficacy in %) (Triticum aestivum): 20%
Setaria viridis (Efficacy in %) (Setaria viridis [14]; application rate 80 g/ha): 100%
Echinochloa crus-galli (Efficacy in %) (Echinochloa crus-galli [15]; application rate 80 g/ha): 90%
Pharbitis purpurea (Efficacy in %) (Pharbitis purpurea [16]; application rate 80 g/ha): 90%
Veronica persica (Efficacy in %) (Veronica persica [17]; application rate 80 g/ha): 100%
Abutilon theophrasti (Efficacy in %) (Abutilon theophrasti [18]; application rate 80 g/ha): 100%
Viola tricolor (Efficacy in %) (Viola tricolor [19]; application rate 80 g/ha): 100%
Stellaria media (Efficacy in %) (Stellaria media [20]; application rate 80 g/ha): 100%
Amaranthus retroflexus (Efficacy in %) (Amaranthus retroflexus [21]): 100%
Polygonum convolvulus (Efficacy in %) (Polygonum convolvulus [22]; application rate 80 g/ha): 100%
Digitaria sanguinalis (Efficacy in %) (Digitaria sanguinalis [23]): 100%

CC(Sc1cc(-n2c(=O)cc(C(F)(F)F)n(C)c2=O)c(F)cc1Cl)C(=O)OC1CNC(=O)C1 (stereo not shown) [I.1-254]
Matricaria inodora (Efficacy in %) (Matricaria inodora [1]; application rate 320 g/ha): 100%
Setaria viridis (Efficacy in %) (Setaria viridis [3]; application rate 80 g/ha): 100%
Echinochloa crus-galli (Efficacy in %) (Echinochloa crus-galli [4]; application rate 80 g/ha): 100%
Hordeum murinum (Efficacy in %) (Hordeum murinum [24]): 100% and 80%
Pharbitis purpurea (Efficacy in %) (Pharbitis purpurea [5]; application rate 80 g/ha): 100%
Veronica persica (Efficacy in %) (Veronica persica [7]; application rate 80 g/ha): 90%
Abutilon theophrasti (Efficacy in %) (Abutilon theophrasti [8]; application rate 80 g/ha): 100%
Matricaria inodora (Efficacy in %) (Matricaria inodora [9]; application rate 80 g/ha): 100%
Viola tricolor (Efficacy in %) (Viola tricolor [10]; application rate 80 g/ha): 100%
Stellaria media (Efficacy in %) (Stellaria media [11]; application rate 80 g/ha): 90%
Amaranthus retroflexus (Efficacy in %) (Amaranthus retroflexus [12]; application rate 80 g/ha): 100%
Polygonum convolvulus (Efficacy in %) (Polygonum convolvulus [13]; application rate 80 g/ha): 100%
Avena fatua (Efficacy in %) (Avena fatua [25]): 80%
Zea mays (Efficacy in %) (Zea mays): 0%
Oryza sativa (Efficacy in %) (Oryza sativa): 0%
Glycine max (Efficacy in %) (Glycine max): 20%
Triticum aestivum (Efficacy in %) (Triticum aestivum): 10%
Setaria viridis (Efficacy in %) (Setaria viridis [14]; application rate 320 g/ha): 100%
Echinochloa crus-galli (Efficacy in %) (Echinochloa crus-galli [15]; application rate 320 g/ha): 100%
Hordeum murinum (Efficacy in %) (Hordeum murinum [26]): 90%
Pharbitis purpurea (Efficacy in %) (Pharbitis purpurea [16]; application rate 320 g/ha): 100%
Alopecurus myosuroides (Efficacy in %) (Alopecurus myosuroides [27]): 100%
Veronica persica (Efficacy in %) (Veronica persica [17]; application rate 320 g/ha): 100%
Cyperus esculentus (Efficacy in %) (Cyperus esculentus): 80%
Abutilon theophrasti (Efficacy in %) (Abutilon theophrasti [18]; application rate 320 g/ha): 100%
Viola tricolor (Efficacy in %) (Viola tricolor [19]; application rate 320 g/ha): 100%
Stellaria media (Efficacy in %) (Stellaria media [20]; application rate 320 g/ha): 100%
Lolium rigidum (Efficacy in %) (Lolium rigidum): 100%
Amaranthus retroflexus (Efficacy in %) (Amaranthus retroflexus [21]): 100%
Polygonum convolvulus (Efficacy in %) (Polygonum convolvulus [22]; application rate 320 g/ha): 100%
Avena fatua (Efficacy in %) (Avena fatua [28]): 90%
